Assay results: patent US20250368962A1, “THREE-DIMENSIONAL HEPATIC TISSUE AND METHOD OF MANUFACTURING THE SAME” (TOPPAN HOLDINGS INC., priority 2023, published 2025)

Experiments:
[1] = tested on: spheroids consisting only of human hepatocytes (PXB cells); assay: ATP assay (CellTiter Glo 3D) viability after exposure to hepatotoxicity-inducing compounds, Test Example 6 Condition 2; assay type: cell-based; conditions: calculated from cell viability (ATP), hepatocyte spheroids, exposure 168 hours, no bile acids, read-out: IC50 Condition 2 (spheroid)
[2] = tested on: three-dimensional hepatic tissue consisting only of human hepatocytes (PXB cells); assay: ATP assay (CellTiter Glo 3D) viability after exposure to hepatotoxicity-inducing compounds, Test Example 6 Condition 1; assay type: cell-based; conditions: Hepatocyte, calculated from cell viability (ATP), exposure 168 hours from day 8 of culture, no bile acids, read-out: IC50 Condition 1 (present tissue)
Description: The resulting mixture was centrifuged at room temperature at 400×g for 2 minutes, the supernatant was removed, and the cells were resuspended in an HCM (product number “CC-3198”, manufactured by Lonza) containing 10 U/mL thrombin (product number “R4648”, manufactured by Sigma-Aldrich) and 1 v/v % endothelial cell growth supplement (ECGS) (product number “1052”, manufactured by Sciencell) to a cell density of 1.95×10^4 cells/2 μL to obtain a cell suspension.
2 μL of an HCM containing 5 mg/mL fibrinogen and 1 v/v % ECGS was added to a 48-well microplate (product number “3830-048”, manufactured by AGC Techno Glass) to form a droplet. The cell suspension was added to the interior of each droplet, and the 48-well microplate was then left to stand in an incubator for 40 minutes to form a fibrin gel in which the human hepatocytes were embedded. 0.5 mL of HCM containing 1 v/v % ECGS was added to each well in which the fibrin gel had been formed, and the cells were cultured under the conditions of 37° C. and 5% CO2. After the start of the culture, the medium was changed every two days.

## CC(=O)Nc1ccc(O)cc1 [Acetaminophen]
[1]
  IC50: 4670 µM
[2]
  IC50: 5510 µM

## CCc1oc2ccccc2c1C(=O)c1cc(Br)c(O)c(Br)c1 [Benzbromarone]
[1]
  IC50: 256 µM
[2]
  IC50: 249 µM

## NC(=O)N1c2ccccc2C=Cc2ccccc21 [Carbamazepine]
[1]
  IC50: 978 µM
[2]
  IC50: 843 µM

## CN(C)CCCN1c2ccccc2Sc2ccc(Cl)cc21 [Chlorpromazine]
[1]
  IC50: 25 µM
[2]
  IC50: 26.6 µM

## O=C(O)Cc1ccccc1Nc1c(Cl)cccc1Cl [Diclofenac]
[1]
  IC50: 297 µM
[2]
  IC50: 337 µM

## CC(C)C(=O)Nc1ccc([N+](=O)[O-])c(C(F)(F)F)c1 [Flutamide]
[1]
  IC50: 178 µM
[2]
  IC50: 63.9 µM

## CC(=O)N1CCN(c2ccc(OCC3COC(Cn4ccnc4)(c4ccc(Cl)cc4Cl)O3)cc2)CC1 (centres unmarked) [Ketoconazole]
[1]
  IC50: 79.5 µM
[2]
  IC50: 80.7 µM

## CS(=O)(=O)CCNCc1ccc(-c2ccc3ncnc(Nc4ccc(OCc5cccc(F)c5)c(Cl)c4)c3c2)o1 [Lapatinib]
[1]
  IC50: 27.3 µM
[2]
  IC50: 8.4 µM

## CCc1nn(CCCN2CCN(c3cccc(Cl)c3)CC2)c(=O)n1CCOc1ccccc1 [Nefazodone]
[1]
  IC50: 46.5 µM
[2]
  IC50: 39.9 µM

## CS(=O)(=O)Nc1ccc([N+](=O)[O-])cc1Oc1ccccc1 [Nimesulide]
[1]
  IC50: 683 µM
[2]
  IC50: 323 µM

## C1CCC(C(CC2CCCCN2)C2CCCCC2)CC1 (centres unmarked) [Perhexiline]
[1]
  IC50: 5.6 µM
[2]
  IC50: 3.6 µM

## Cc1ccc(C(=O)c2cc(O)c(O)c([N+](=O)[O-])c2)cc1 [Tolcapone]
[1]
  IC50: 92.4 µM
[2]
  IC50: 132 µM

## Cc1c(C)c2c(c(C)c1O)CCC(C)(COc1ccc(CC3SC(=O)NC3=O)cc1)O2 (centres unmarked) [Troglitazone]
[1]
  IC50: 202 µM
[2]
  IC50: 92.9 µM
